In patent US20130338092A1, “COMPOUNDS AND METHODS FOR TARGETING LEUKEMIC STEM CELLS” (The Broad Institute, Inc., priority 2011, published 2013):
pIC50: −log10 of the molar value. “Also recorded” adds a separate entry of the source. Read-outs that look alike come from different tables or passages of the source.

Columns and labels:
[1] = tested on: LSC-enriched leukemia cells (MLL-AF9); assay: Leukemia coculture assay on primary MSC stroma (cobblestoning readout); type: cell-based, murine; conditions: for pIC50: read-out: Leukemia IC50; for leukemia-selective activity in coculture vs normal HSPCs: primary MSC stroma
Procedure: Whole bone marrow were harvested from C57/B16 actin-dsRed mice (006051, Jackson Labs), subjected to red blood cell lysis (Qiagen), then granulocyte-macrophage progenitors (GMPs) were isolated by Fluorescence-activated cell sorting (FACsAria, Becton Dickinson). GMPs were spinfected twice (2500 rpm, 90 min, 37 C) in the presence of mIL3 (10 ng/ml, Peprotech), mIL6 (10 ng/ml, Peprotech), and mSCF (10 ng/ml, Peprotech) with pMSCV-MLL-AF9-Neo virus then transplanted into lethally irradiated C57/B16 recipients. After disease onset, the spleens were harvested and transplanted into sublethally irradiated secondary recipients. Subsequent transplantation of bulk spleen cells from leukemic secondary mice was repeated twice to generate leukemic GMPs from quaternary transplant leukemic mouse bone marrow.
Long bones and hips from moribund leukemic mice were harvested, cleaned, crushed and sequentially passed through 100 and 70 μM filters (Falcon). The cells were RBC lysed (Qiagen) and stained in PBS+2% FBS (Omega). Antibodies included lineage markers CD4, CD8, Gr1, Mac1, IL-7R, and Ter119 (Caltag), c-kit (17-1172-83, eBioscience), Sca-1 (11-5981-82, eBioscience), CD34 (11-0341-85, eBioscience), and CD16/32 (25-0161-82, eBioscience). Hoechst 33258 (H21491, Invitrogen) was also used, to identify live cells. Cells were sorted on a FacsAria II (Becton Dickinson).
The humerii, tibiae, ilia, femurs, and spine were isolated from actin-GFP mice (000329, Jackson Lab) crushed using a mortar and pestle, washed in phosphate-buffered saline (PBS) without magnesium and calcium (Gibco) with 0.5% fetal bovine serum (FBS) (HyClone) and filtered through a 70-μm filter. Red blood cell lysis was performed with ammonium-chloride/potassium-chloride (ACK) lysing buffer (Lonza), the cells were resuspended in α-MEM (StemCell Technologies), 20% FBS (HyClone) and 1× Pen-Strep (CellGro), plated in 25 ml in 150-cm^2 tissue-culture flasks (three per mouse), and incubated at 33° C. with 5% CO2. After 2-3 days, the medium was replaced with fresh α-MEM with 20% FBS. After 8-14 days, the cells were rinsed, split by trypsinization (CellGro), pooled, filtered through a 70 μm filter, replated at 3-4 million cells per 150-cm^2 tissue-culture flask, and grown at 33° C. with 5% CO2 for 3-4 days until nearly confluent. The cells were trypsinized, filtered, and resuspended in 0.5% FBS in PBS with biotin-conjugated anti-mouse CD105 antibody (eBioscience) for 15-30 minutes at room temperature. The CD105-labeled cells were incubated with Dynabead M-280 streptavidin-linked magnetic beads (Invitrogen) for 15-30 minutes at 4° C. with agitation and isolated using magnetic separation and rinsed once. The CD105^+ cell fraction was replated at 1-2 million cells per 150-cm^2 tissue-culture flask and incubated at 33° C. with 5% CO2 for 2-3 days.
The MSCs were trypsinized, filtered, diluted in phenol-red-free alpha-MEM with 20% FBS, and plated (30 μl for a total of 2000 cells per well) on 384-well clear-bottomed black tissue-culture treated plate (3712, Corning) pretreated with fibronectin (Millipore). Plate covers (VWR) were added, the plates were spun and at 500 with slow braking, and the cells were incubated at room temperature for 60-90 minutes before incubation at 33° C. with 5% CO2 for 3 days prior to hematopoietic cell plating. […]

[2] = tested on: leukemic cobblestoning on pretreated OP9 stromal cells; assay: Stromal pretreatment screen on OP9 stroma; type: cell-based, murine; conditions: compound on OP9 stroma for 3 days, washed before LSC plating
Procedure: OP9 cells were plated as in the primary screen. 24 hours later compounds were added to the stromal cultures and the plates were incubated for three days. […] As before, the plates were imaged after 6 days of coculture, and the level of cobblestoning was quantified. Any inhibition of cobblestoning observed under these modified assay conditions would presumably be due to the activity of the compound on the niche, and would allow the analysis of cell non-cell-autonomous mechanisms of leukemia growth inhibition.

normal HSPCs = assay: Normal HSPC coculture on primary MSC stroma; conditions: for pIC50: Mus musculus
Procedure: The material was cleaned, crushed and sequentially passed through 100 and 70 μM filters (Falcon). […] The biotin-labeled cells were spun down, resuspended in 0.5% FBS in PBS, and incubated for 15-30 minutes at 4° C. with agitation with 1 mL of Dynabead M-280 streptavidin-linked magnetic beads per 4 mice. The bead-linked cells were depleted using magnetic separation and rinsed once. The lineage- and CD48-depleted cell fraction was labeled with streptavidin-APC-Cy7 antibody from BD Biosciences and c-kit-APC, Sca-1-FITC, CD48-Pacific Blue, and CD150 PE-Cy7 antibodies from eBioscience. DsRed-positive lineage-Sca-1+c-kit+CD48− HSCs were sorted using a FACS DiVa or FACS ARIA (BD Biosciences).
A total of 20 μL of 20 μg/mL fibronectin (Millipore) in PBS was added to each well of a 384-well clear-bottomed black tissue-culture treated plate (Corning) and incubated for 30-120 minutes at 33° C. or 37° C. […] The fibronectin solution was removed from each well using a 24-channel wand aspirator; then 30 μL of BMSC solution was added to plate 2000 BMSCs/well. […] Each plate was covered with a sterile rayon breathable membrane (VWR) and plastic lid, and then spun at 500 rpm (approximately 60× gravity) with slow braking. The plates were incubated at room temperature for 60-90 minutes before incubation at 33° C. with 5% CO2 for 3 days prior to HSC addition.
The sorted HSCs, SLAMs and progenitor cells were resuspended in phenol-red free alpha-MEM with 20% FBS and diluted to 10,000 cells/mL. A total of 20 μL of cell solution containing 200 hematopoietic cells was added to each well using a multichannel pipettor or liquid-dispensing system. Each plate was covered with a sterile rayon breathable membrane (VWR) and plastic lid, and then spun at 500 rpm (approximately 60×gravity) with slow braking. The plates were incubated at room temperature for 60-90 minutes before incubation at 33° C. with 5% CO2 overnight prior to compound or cytokine addition.
Image analysis was performed using MetaXpress software from MDC and CellProfiler software from the Broad Institute of Harvard and MIT.
Compound addition and incubation was performed as described for the LSC coculture screen above, but without a media change or readdition of the compound.
The selected set was screened in 8-point dose against both normal HSPCs with a high number of replicates (6) and LSC-enriched leukemia cells, each cocultured on primary MSCs.

[3] = Mus musculus, MLL-AF9, LSCs on primary MSC stroma, 8-point dose
[4] = read-out: Normal IC50, HSPCs on primary MSC stroma, 8-point dose

## CC1(C)C(C(=O)Nc2ccc(S(=O)(=O)c3ccc(NC(=O)C4C(C)(C)C4(C)C)cc3)cc2)C1(C)C [BRD7116]
[1]; [3]
  pIC50: 6.69
[1]
  leukemia-selective activity in coculture vs normal HSPCs: selective loss of the LSC-enriched leukemia cells
[2]
  leukemic cobblestoning after stromal pretreatment: decreased leukemic cobblestoning; also recorded: partially recapitulated the leukemia cobblestone inhibition
Normal HSPCs; [4]
  pIC50: < 4.70

## CCC(C)C(=O)OC1CC(C)C=C2C=CC(C)C(CCC(O)CC(O)CC(=O)O)C21 (centres unmarked) [Lovastatic acid]
[1]; LSCs on primary MSC stroma, 8-point dose
  pIC50: 6.78
[1]; [3]
  pIC50: > 6.70
[1]; Mus musculus, MLL-AF9, statins (acid form), LSCs cocultured on primary MSC stroma
  pIC50: > 6.70
[1]
  leukemia-selective activity in coculture vs normal HSPCs: leukemia-selective activity
Normal HSPCs; [4]
  pIC50: < 4.70
Normal HSPCs; read-out: Normal IC50, statins (acid form), HSPCs cocultured on primary MSC stroma
  pIC50: < 5.00
Normal HSPCs; up to 20 μM, the maximum dose tested
  effect on normal HSPCs in coculture: minimal toxicity
